Drawing on ChEMBL document CHEMBL2434906, “Synthesis, characterization, and anticancer studies of S and N alkyl piperazine-substituted positional isomers of 1,2,4-triazole derivatives” (Med Chem Res, 2013), this text covers IC50 for 22 compounds.

Assay type in all cases: functional, cell-based
In assay [1] the test system is MCF7. The assay can be described thus: Cytotoxicity against human MCF7 cells after 24 hrs by MTT assay. The conditions noted are these: MCF7, 24 h. Background: Formazan colour is commonly taken as a measure of viable cells.
In assay [2] the test system is HL-60. Briefly: Cytotoxicity against human HL60 cells after 24 hrs by MTT assay. The settings on record: HL-60, 24 h.
The subject of assay [3] is U-937. The assay can be described thus: Cytotoxicity against human U937 cells after 24 hrs by MTT assay. The settings on record: U-937, 24 h.
The test system of assay [4] is THP-1. Briefly: Cytotoxicity against human THP1 cells after 24 hrs by MTT assay. The conditions noted are these: THP-1, 24 h.
In assay [5] the test system is COLO 205. The assay can be described thus: Cytotoxicity against human COLO205 cells after 24 hrs by MTT assay. The settings on record: COLO 205, 24 h.

Each structure is given as a SMILES string.

Turning to `CCN1CCN(CCCSc2nnc(-c3ccccc3Cl)[nH]2)CC1`, the IC50 in assay [1], in assay [2], in assay [3], in assay [4] and in assay [5] was more than 300 µM in each case.

With `Fc1ccc(-c2nnc(SCCCN3CCN(Cc4ccccc4)CC3)[nH]2)cc1`, the IC50 was 184 µM in assay [1]; more than 300 µM in assay [2]; 124 µM in assay [3]; 255 µM in assay [4]; 181 µM in assay [5].

For the compound `c1ccc(Cc2nnc(SCCCN3CCN(c4ccccn4)CC3)[nH]2)cc1`, the IC50 in assay [1] was more than 300 µM; in assay [2], more than 300 µM; in assay [3], 163 µM; in assay [4] it was more than 300 µM; in assay [5] it was more than 300 µM.

Regarding `Clc1ccccc1-c1nnc(SCCCN2CCN(c3ccccn3)CC2)[nH]1`, the IC50 in assay [1], in assay [2], in assay [3], in assay [4] and in assay [5] was more than 300 µM throughout.

For `Cc1cccc(-c2nnc(SCCCN3CCN(c4ccccn4)CC3)[nH]2)c1`, the IC50 in assay [1] is more than 300 µM; in assay [2], 29.4 µM; in assay [3] it was 52.3 µM; in assay [4], more than 300 µM; in assay [5] it was more than 300 µM.

On to `Cc1cccc(-c2nnc(SCCCN3CCN(c4ccccc4)CC3)[nH]2)c1`, for which the concentration for half-maximal inhibition (IC50) in assay [1] was more than 300 µM; in assay [2] it was more than 300 µM; in assay [3], more than 300 µM; in assay [4] it was 248 µM; in assay [5] it was more than 300 µM.

As for `Clc1ccc(-c2nnc(SCCCN3CCN(c4cccc(Cl)c4)CC3)[nH]2)cc1`, the IC50 in assay [1], in assay [2], in assay [3], in assay [4] and in assay [5] was more than 300 µM in each case.

As for `CC(C)(C)c1ccc(-c2nn(CCCN3CCN(c4cccc(Cl)c4)CC3)c(=S)[nH]2)cc1`, the IC50 in assay [1], in assay [2], in assay [3], in assay [4] and in assay [5] was more than 300 µM each time.

Consider `Clc1ccc(-c2nnc(SCCCN3CCN(c4ncccn4)CC3)[nH]2)cc1`, for which the IC50 in assay [1] is more than 300 µM; in assay [2], 105 µM; in assay [3], 102 µM; in assay [4] it was more than 300 µM; in assay [5] it was more than 300 µM.

On to `Cc1ccc(-c2nn(CCCN3CCN(c4cccc(Cl)c4)CC3)c(=S)[nH]2)cc1`, for which the IC50 in assay [1], in assay [2], in assay [3], in assay [4] and in assay [5] was more than 300 µM each time.

Turning to `CC(C)(C)c1ccc(-c2nn(CCCN3CCN(c4ccccc4)CC3)c(=S)[nH]2)cc1`, the IC50 was more than 300 µM in assay [1]; more than 300 µM in assay [2]; 88.9 µM in assay [3]; 147 µM in assay [4]; more than 300 µM in assay [5].

In the case of `CC(C)(C)c1ccc(-c2nnc(SCCCN3CCOCC3)[nH]2)cc1`, the IC50 was 287 µM in assay [1]; more than 300 µM in assay [2]; 156 µM in assay [3]; more than 300 µM in assay [4]; 155 µM in assay [5].

Turning to `S=c1[nH]c(-c2ccc(Cl)cc2)nn1CCCN1CCN(c2cccc(Cl)c2)CC1`, the IC50 in assay [1] is more than 300 µM; in assay [2], 6.67 µM; in assay [3] it was 28.2 µM; in assay [4], more than 300 µM; in assay [5], more than 300 µM.

Turning to `Cc1ccc(-c2nnc(SCCCN3CCN(c4cccc(Cl)c4)CC3)[nH]2)cc1`, the half-maximal inhibitory concentration (IC50) in assay [1] was more than 300 µM; in assay [2], more than 300 µM; in assay [3], 257 µM; in assay [4], more than 300 µM; in assay [5], 139 µM.

Turning to `CC(C)(C)c1ccc(-c2nnc(SCCCN3CCN(c4ccccc4)CC3)[nH]2)cc1`, the IC50 in assay [1] was more than 300 µM; in assay [2], more than 300 µM; in assay [3], 49.3 µM; in assay [4], 97.6 µM; in assay [5], more than 300 µM.

For the compound `COc1cc([C@@H]2c3cc4c(cc3[C@@H](O[C@@H]3O[C@@H]5CO[C@@H](C)O[C@H]5[C@H](O)[C@H]3O)[C@H]3COC(=O)[C@H]23)OCO4)cc(OC)c1O` [ETOPOSIDE], the concentration for half-maximal inhibition (IC50) in assay [1] worked out at 29.5 µM; in assay [2] it was 1.84 µM; in assay [3], 10.4 µM.

Regarding `CCN1CCN(CCCSc2nnc(-c3ccc(C)cc3)[nH]2)CC1`, the IC50 in assay [1], in assay [2], in assay [3], in assay [4] and in assay [5] was more than 300 µM each time.

For `Fc1ccc(-c2nn(CCCN3CCN(Cc4ccccc4)CC3)c(=S)[nH]2)cc1`, the IC50 was 128 µM in assay [1]; more than 300 µM in assay [2]; more than 300 µM in assay [3]; 160 µM in assay [4]; 111 µM in assay [5].

Take `Clc1cccc(-c2nnc(SCCCN3CCN(c4ncccn4)CC3)[nH]2)c1`: the IC50 in assay [1] was more than 300 µM; in assay [2], 18.5 µM; in assay [3] it was 49.1 µM; in assay [4], more than 300 µM; in assay [5], more than 300 µM.

As for `COc1ccc(-c2nn(CCCN3CCOCC3)c(=S)[nH]2)cc1OC`, the IC50 in assay [1], in assay [2], in assay [3], in assay [4] and in assay [5] was more than 300 µM in each case.

As for `CCN1CCN(CCCn2nc(-c3ccc(OC)c(OC)c3)[nH]c2=S)CC1`, the concentration for half-maximal inhibition (IC50) in assay [1], in assay [2], in assay [3], in assay [4] and in assay [5] was more than 300 µM throughout.

`COc1ccc(-c2nn(CCCN3CCN(c4ccccn4)CC3)c(=S)[nH]2)cc1`: the IC50 in assay [1] is more than 300 µM; in assay [2], 115 µM; in assay [3], more than 300 µM; in assay [4], more than 300 µM; in assay [5], more than 300 µM.

By IC50 is commonly meant the midpoint of a concentration-inhibition curve. Higher therefore signals a need for much substance.
